These results are taken from publication PMC8279417 (Journal of Medicinal Chemistry, 2021).

Test [1] deals with T1, ERβ (Homo sapiens, UniProt Q92731). The settings on record: for IC50: read-out: TR-FRET ERβ IC50, displacement of fluorescent-labeled E2 from the LBD of ERβ; for RBA ERβ: relative binding affinity compared to E2 (100%). On the technique in general: TR-FRET usually uses a lanthanide donor and a delayed reading to cut background.
Target sequence in this assay (Q92731 264-498 limits assumed): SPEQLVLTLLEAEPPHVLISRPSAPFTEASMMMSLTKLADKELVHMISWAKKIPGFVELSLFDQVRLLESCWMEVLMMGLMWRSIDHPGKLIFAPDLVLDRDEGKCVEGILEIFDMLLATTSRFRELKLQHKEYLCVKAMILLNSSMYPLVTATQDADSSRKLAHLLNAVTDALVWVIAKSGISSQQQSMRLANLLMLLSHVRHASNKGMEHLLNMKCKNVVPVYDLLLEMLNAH
Procedure: (§1) LanthaScreen TR-FRET ER alpha/beta competitive binding assays (Invitrogen, Carlsbad) were used to investigate the binding affinity to the isolated receptors according to the manufacturer′s protocols. Measurement was performed with an Enspire multimode plate reader (PerkinElmer Life Sciences, Waltham). Calculations were performed with Excel (Microsoft, Redmond) and GraphPad Prism (GraphPad Software, San Diego).
The target in test [2] is T1, ERβ. The test is described as follows: Luciferase reporter gene assay (transactivation), U2OS cells transfected with pSG5-ERβ. Type of test: cell-based. To be noted: inhibition of E2-induced (0.3 nM) transactivation. (In general: A reporter such as luciferase makes a cellular process visible.)
Target sequence in this assay (Q92731 whole entry, the tested form may be a part): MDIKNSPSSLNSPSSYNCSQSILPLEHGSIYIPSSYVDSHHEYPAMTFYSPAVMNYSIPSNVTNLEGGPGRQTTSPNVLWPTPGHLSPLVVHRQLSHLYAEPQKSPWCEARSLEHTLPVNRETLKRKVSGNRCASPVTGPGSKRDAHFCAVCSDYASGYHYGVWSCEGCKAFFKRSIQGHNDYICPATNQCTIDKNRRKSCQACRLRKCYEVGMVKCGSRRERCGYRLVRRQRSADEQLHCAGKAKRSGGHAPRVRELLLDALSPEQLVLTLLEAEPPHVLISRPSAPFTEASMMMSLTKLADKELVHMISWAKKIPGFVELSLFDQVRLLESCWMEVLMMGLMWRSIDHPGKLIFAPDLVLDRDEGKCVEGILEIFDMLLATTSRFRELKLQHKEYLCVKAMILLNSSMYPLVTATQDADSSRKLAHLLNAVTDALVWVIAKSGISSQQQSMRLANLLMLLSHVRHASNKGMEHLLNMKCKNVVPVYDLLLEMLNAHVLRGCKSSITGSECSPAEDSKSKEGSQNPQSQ
The target in test [3] is T2, ERα (Homo sapiens, UniProt P03372).
T2 sequence (P03372 1-595): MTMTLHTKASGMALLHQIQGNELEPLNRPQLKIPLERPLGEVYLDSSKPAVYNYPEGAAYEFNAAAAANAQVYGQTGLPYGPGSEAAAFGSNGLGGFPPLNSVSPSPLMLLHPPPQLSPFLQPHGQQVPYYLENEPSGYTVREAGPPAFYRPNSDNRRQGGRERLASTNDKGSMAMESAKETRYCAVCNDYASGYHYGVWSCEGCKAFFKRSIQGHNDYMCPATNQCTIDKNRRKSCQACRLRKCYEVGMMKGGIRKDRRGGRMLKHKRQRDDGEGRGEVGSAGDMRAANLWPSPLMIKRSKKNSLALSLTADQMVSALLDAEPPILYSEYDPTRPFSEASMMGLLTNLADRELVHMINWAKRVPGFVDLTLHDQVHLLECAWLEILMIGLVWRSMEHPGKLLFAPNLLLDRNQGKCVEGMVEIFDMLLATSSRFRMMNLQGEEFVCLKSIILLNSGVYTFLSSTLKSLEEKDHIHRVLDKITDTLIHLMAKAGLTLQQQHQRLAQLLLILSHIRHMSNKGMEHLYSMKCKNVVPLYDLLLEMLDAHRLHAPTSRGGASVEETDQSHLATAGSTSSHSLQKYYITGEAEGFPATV
The test is described as follows: In-Cell Western immunoassay, ERα levels in MCF-7 cells. Type of test: cell-based. The settings on record: for % ERα remaining [1 μM]: MCF-7 cells, 24 h, compared to the solvent control (DMSO).
Procedure: Degradation was evaluated with the CellTagTM 700 In-Cell Western kit (LI-COR, Lincoln) according to the manufacturer’s protocol. MCF-7 cells were treated, and calculation was performed as previously described.[24]

In test [4] the target is T3, ERα (Homo sapiens, UniProt P03372).
T3 sequence (P03372 311-547 limits assumed): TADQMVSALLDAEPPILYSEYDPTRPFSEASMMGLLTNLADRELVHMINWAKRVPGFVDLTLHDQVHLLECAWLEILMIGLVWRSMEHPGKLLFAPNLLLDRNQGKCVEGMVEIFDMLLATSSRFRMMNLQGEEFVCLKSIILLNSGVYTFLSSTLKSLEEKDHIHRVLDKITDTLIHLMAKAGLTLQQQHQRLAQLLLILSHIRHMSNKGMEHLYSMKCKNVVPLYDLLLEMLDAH
The settings on record: for IC50: read-out: TR-FRET ERα IC50, displacement of fluorescent-labeled E2 from the LBD of ERα; for RBA ERα: relative binding affinity compared to E2 (100%).
Procedure: as §1

For test [5], the target named is T2, ERα. Nature of the test: Luciferase reporter gene assay (transactivation), U2OS cells transfected with pSG5-ERα. Type of test: cell-based. To be noted: inhibition of E2-induced (0.03 nM) transactivation.

Where two headings read alike, the source gives them in different places.

Usually IC50 stands for the concentration that gives 50% inhibition. As to `CCC(=C(c1ccc(O)cc1)c1ccc(/C=C/C(=O)NCCCNC(=O)CCc2nc3cc(O)ccc3[nH]2)cc1)c1ccccc1` (mixture of isomers) [Compound 40, (E)-N-[3-(3-(5-Hydroxy-1H-benzo[d]imidazol-2-yl)propanamido)propyl]-3-[4-((E/Z)-1-(4-hydroxyphenyl)-2-phenylbut-1-enyl)phenyl]acrylamide], at ERβ [1], the IC50 was 3.78 ± 1.54 nM and the “RBA ERβ” value was 19.7%. At ERβ [2], this compound had an IC50 of 18.7 ± 8.3 nM.
Consider `CCC(=C(c1ccc(O)cc1)c1ccc(/C=C/C(=O)NCCCCNC(=O)CCc2nc3cc(OC)ccc3[nH]2)cc1)c1ccccc1` (mixture of isomers) [Compound 34, (E)-3-[4-((E/Z)-1-(4-Hydroxyphenyl)-2-phenylbut-1-enyl)phenyl]-N-[4-(3-(5-methoxy-1H-benzo[d]imidazol-2-yl)propanamido)butyl]acrylamide], for which the “% ERα remaining [1 μM]” value on ERα [3] is on record as 132.9 ± 14.1%. Moreover, on ERα [4], the 50% inhibitory concentration (IC50) was 2.22 ± 0.76 nM and the “RBA ERα” value was 14.9%. The IC50 on ERα [5] is 34.5 ± 3.5 nM.
Regarding `CCC(=C(c1ccc(O)cc1)c1ccc(/C=C/C(=O)NCCNC(=O)CCc2nc3cc(OC)ccc3[nH]2)cc1)c1ccccc1` (mixture of isomers) [Compound 31, (E)-3-[4-((E/Z)-1-(4-Hydroxyphenyl)-2-phenylbut-1-enyl)phenyl]-N-[2-(3-(5-methoxy-1H-benzo[d]imidazol-2-yl)propanamido)ethyl]acrylamide], the “% ERα remaining [1 μM]” value at ERα [3] is 113.8 ± 4.3%. In addition, the IC50 on ERβ [1] was 4.88 ± 2.65 nM; on ERβ [2], 6.7 ± 2.7 nM. On ERβ [1], the “RBA ERβ” value is listed as 15.2%. Also, the “RBA ERα” value at ERα [4] worked out at 12%.
With `CCC(=C(c1ccc(O)cc1)c1ccc(/C=C/C(=O)NCCNC(=O)CCc2nc3cc(O)ccc3[nH]2)cc1)c1ccccc1` (mixture of isomers) [Compound 39, (E)-N-[2-(3-(5-Hydroxy-1H-benzo[d]imidazol-2-yl)propanamido)ethyl]-3-[4-((E/Z)-1-(4-hydroxyphenyl)-2-phenylbut-1-enyl)phenyl]acrylamide], the Emax at 1 µM on ERα [3] (MCF7, read-out: % efficacy [1 μM], downregulation of ERα compared to fulvestrant (100%), MCF-7, 1 μM) stood at 1%. For the same compound, the “% ERα remaining [1 μM]” value at ERα [3] came out at 99.2 ± 3.5%. The results for the IC50 on ERα [4] and against ERα [5] were 1.45 ± 0.37 nM and 26 ± 6.6 nM, respectively. For the same compound, the “RBA ERα” value at ERα [4] is listed as 22.8%.
As for `C[C@]12CC[C@@H]3c4ccc(O)cc4C[C@@H](CCCCCCCCC[S+]([O-])CCCC(F)(F)C(F)(F)F)[C@H]3[C@@H]1CC[C@@H]2O` (stereo partly drawn) [fulvestrant, reference compound], the “RBA ERβ” value on ERβ [1] was found to be 10.0%.
`CCC(=C(c1ccc(O)cc1)c1ccc(/C=C/C(=O)NCCCCCCNC(=O)CCc2nc3cc(O)ccc3[nH]2)cc1)c1ccccc1` (mixture of isomers) [Compound 43, (E)-N-[6-(3-(5-Hydroxy-1H-benzo[d]imidazol-2-yl)propanamido)hexyl]-3-[4-((E/Z)-1-(4-hydroxyphenyl)-2-phenylbut-1-enyl)phenyl]acrylamide]: at ERβ [1], the IC50 turned out to be 7.8 ± 2.3 nM and the “RBA ERβ” value worked out at 9.5%. At ERβ [2], this compound showed an IC50 of 16.1 ± 7 nM.
For `CCC(=C(c1ccc(O)cc1)c1ccc(/C=C/C(=O)NCCCCNC(=O)CCc2nc3cc(O)ccc3[nH]2)cc1)c1ccccc1` (mixture of isomers) [Compound 41, (E)-N-[4-(3-(5-Hydroxy-1H-benzo[d]imidazol-2-yl)propanamido)butyl]-3-[4-((E/Z)-1-(4-hydroxyphenyl)-2-phenylbut-1-enyl)phenyl]acrylamide] the same measures were 2.84 ± 1.31 nM, 26.2% and 15.9 ± 1.7 nM.
